Common to all, as to type: in vivo
The subject of one data set is trypsin biosynthesis. Nature of the data set: Effect of injected TMOF-R analogues on trypsin biosynthesis in Heliothis virescens (BApNA). To be noted: 2nd instar larvae, 24 hours after injection. The method, then: Individual second instar larvae of H. virescens were injected with TMOF-R analogues (10 to 0.25 μg per larva) and maintained in separate plastic cups on artificial diet. Twenty-four hours after the injections 3 groups of larvae (3 per group) were assayed for trypsin biosynthesis using BApNA (trypsin specific substrate; Table 5).

Data set [1] deals with Aedes aegypti larvae. The experiment in a line: Effect of feeding TMOF-R analogues on Aedes aegypti larvae (LC50). The conditions noted are these: fed in microtiter plates with yeast particles for 5 to 6 days; read-out: LC50 (mM ± S.E.M.). As for the experimental part: TMOF analogues (5 to 8 amino acids in length, and polymers of these analogues) in which Arg was added at the C-terminus were evaluated to determine their effect on larval growth and development. A series of analogues were synthesized and tested by feeding them to mosquito larvae at concentrations of (0.5 to 5.0 mg/ml; Table 4). Concentrations of 2.0 to 0.065 mg/ml were used to feed mosquito larvae and calculate the Lethal Dose at 50% mortality (LD50; Table 4) of the TMOF analogues. […] In both cases larval death and trypsin biosynthesis inhibition was noted (Table 4 and 5). […] The advantage of using short analogues connected by Arg is that they can be digested in the gut into short TMOF analogues that can penetrate the midgut much faster than longer analogues.
Individual, newly hatched Aedes aegypti larvae were maintained in separate microtiter wells on a diet of autoclaved yeast (1 mg/ml). The diet was supplemented with TMOF analogues (Table 4). An identical number of larvae were maintained on yeast served as a control. […] All control groups survived and larval growth and development were normal. Larvae that were fed TMOF analogues had increased mortality, particularly when the larvae where fed the concentrations of the analogues higher than 2 mg/ml (Table 4).
Since larvae swallow only a small portion of the yeast particles that adsorbed the analogues it is assumed that approximately I to 20 ng are taken orally at the high concentrations. Using the various concentrations a lethal concentration that caused 50% mortality (LC50) for the mosquito larvae was calculated (Table 4). The results presented in Table 4 clearly indicate that the short TMOF-R analogues are very effective, especially the (DPAR)4 (SEQ ID NO. 61) polymer that is broken into 4 DPARs (SEQ ID NO. 60) in the gut.

For data set [2], the system named is Aedes aegypti larvae. Nature of the data set: Effect of TMOF and its analogue peptides on mosquito larvae (feeding, LD50). The conditions noted are these: newly hatched larvae on autoclaved yeast 1 mg/ml, microtiter plates, 7 days. The source says: TMOF can traverse the gut epithelium, enter the hemolymph and bind a gut receptor (Borovsky, D. and F. Mahmood (1995) “Feeding the mosquito Aedes aegypti with TMOF and its analogs; effect on trypsin biosynthesis and egg development,” Regulatory Peptides57:273-281; Borovsky, et al. (1994) “Characterization and localization of mosquito-gut receptors for trypsin modulating oostatic factor using complementary peptide immunochemistry” FASEB J. 8:350-355.). […] To find out if truncated TMOF peptides have an effect on larval growth and development, a series of peptides were synthesized and tested by feeding them to mosquito larvae at concentrations of 0 to 5.0 mg/ml (Table 3). Individual, newly hatched Aedes aegypti larvae were maintained in separate microtiter wells on a diet of autoclaved yeast (1 mg/ml). The diet was supplemented with TMOF peptides (Table 3). An identical number of larvae maintained on yeast served as a control. […] All control groups survived and larval growth and development was normal. Since larvae swallow only a small portion of the yeast particles that adsorbed the peptides, it is assumed that approximately 1 to 20 ng are taken orally at the high concentrations.

Three substances from US6566129B1, “Transformed cells useful for the control of pests” (University of Florida Research Foundation, Inc., priority 1999, dated 2003) can be followed below.

Ends that are not written are not given here.

The term LC50 denotes the concentration lethal to half of the exposed cells or organisms.

On to YDPAPPPPPP [YDPAP6, reference compound], for which the “Inhibition (% ± S.E.M.) of trypsin biosynthesis” value with trypsin biosynthesis (0.25 μg/injection) was 19.5 ± 0.7%; in the data set with trypsin biosynthesis (0.5 μg/injection), 11 ± 1%; in the data set with trypsin biosynthesis (1 μg/injection) it was 25 ± 2%; with trypsin biosynthesis (10 μg/injection), 56%. Moreover, the median lethal concentration (LC50) in the data set on Aedes aegypti larvae [1] turned out to be 0.2 ± 0.02 mM. Also, in the data set on Aedes aegypti larvae [2], the “LD50 mM ± S.E.M.” value stood at 0.2 ± 0.02 mM.

Consider YDPAPR [YDPAPR], for which the “Inhibition (% ± S.E.M.) of trypsin biosynthesis” value was 11 ± 1% in the data set with trypsin biosynthesis (0.25 μg/injection), 14 ± 1% in the data set on trypsin biosynthesis (0.5 μg/injection), 31.5 ± 2% with trypsin biosynthesis (1 μg/injection) and 53 ± 25% in the data set on trypsin biosynthesis (10 μg/injection). Also, the 50% lethal concentration (LC50) in the data set with Aedes aegypti larvae [1] came to 0.24 ± 0.02 mM.

For the substance YDPAR [YDPAR], the “Inhibition (% ± S.E.M.) of trypsin biosynthesis” value with trypsin biosynthesis (0.5 μg/injection) is on record as 1 ± 0.07%; in the data set on trypsin biosynthesis (1 μg/injection), 39 ± 2%; with trypsin biosynthesis (10 μg/injection), 33.5 ± 9%. In the data set on Aedes aegypti larvae [1], the median lethal concentration (LC50) was 0.12 ± 0.07 mM.
